Blank lines part the entries; values can stand above or below the substance they belong to. Where no end group is shown, it is not given here.
Columns and labels:
[1] = ATP-encapsulated liposome leakage assay, PC:PI(4,5)P2; settings: 15 μM defensin
Protocol: Liposomes were generated as described previously using natural PI(4,5)P2 (porcine brain, in chloroform:methanol:water at 20:9:1 molar ratio) and PC (chicken egg, in chloroform) purchased from Avanti Polar Lipids. PC only or PC:PI(4,5)P2 (95:5 molar ratio) solutions were dried under a stream of nitrogen gas followed by overnight vacuum-drying. The lipid films were rehydrated to a final concentration of 5 mg/mL in 20 mM HEPES (pH 7.2) containing 5 mg/mL adenosine-5-triphosphate disodium salt (ATP; Sigma-Aldrich) at 37°C for 1 h. After three subsequent cycles of freezing (liquid nitrogen) and thawing (25°C), multilamellar liposomes were extruded 15–20 times through a mini-extruder (Avanti Polar Lipids). Free ATP was removed by three centrifugal washes with 20 mM HEPES at 16,500 g prior to the ATP release assay. Liposomes treated with 1% Triton X-100 were included as positive control and assigned as total lysis, whereas HEPES only control served as background reading. The level of ATP release at a particular time point was determined by quotient of the corrected reading (after subtracting background) of the sample at that time point and corrected reading of total lysis, as per the following equation: % Lysist=Samplet−HEPESt/Triton X−HEPES×100

[2] = Protein-lipid overlay assay, PIP strip; format: binding; settings: 1 μg/mL protein, immunodetection, densitometry
Protocol: Protein-lipid overlay assays using Membrane strip™ or PIP strip™ (Echelon Biosciences, Salt Lake City, UT) were performed using 1 μg/mL proteins as described previously. Lipid binding was immunodetected using a combination of rabbit anti-HBD-3 IgG (50 μg/mL) and horseradish peroxidase-conjugated donkey-anti-rabbit Ig (10 μg/mL) antibodies. Chemiluminescence signal intensity was quantitated by densitometry analysis using ImageJ (National Institutes of Health, Bethesda, MD; http://imagej.nih.gov/ij/).

U937 and HeLa cells = test: Cell viability assay, mutants compared to wild-type; format: cell-based, human; settings: cell viability assays, 48 h
Protocol: (§1) Different concentrations of HBD-3 were added to cells seeded in 96-well plates in appropriate complete medium. Initial plating cell density was pre-optimised to avoid confluence at endpoint. After 48 h, cell viability was determined using 3-(4,5-dimethylthiazol-2-yl)-2,5-diphenyltetrazolium bromide (MTT) (Sigma-Aldrich, MO) for adherent cells (HeLa, PC3, HUVEC, AHDF, CASMC) or 3-(4,5-dimethylthiazol-2-yl)-5-(3-carboxymethoxyphenyl)-2-(4-sulfophenyl)-2H-tetrazolium (MTS) (Promega, Madison, WI) coupled with phenzine methosulfate (PMS) (Promega) for suspension cells (U937, HL-60, Jurkat) prior to absorbance measurement at 570 nm and […], respectively. Absorbance readings of untreated control wells was designated as 100% cell viability.

HeLa cells = test: Tetrazolium-coupled cell viability assay, HBD-3 and mutants, HeLa; format: cell-based, human; settings: 48 h
Protocol: as §1

[3] = tested on: plasma membrane PI(4,5)P2 of U937 cells; test: Anti-PI(4,5)P2 antibody blocking assay; format: cell-based, human; settings: 15 μM defensins 30 min or 10 mM neomycin 3 h; cells fixed, saponin-lysed, FITC-conjugated anti-PI(4,5)P2 IgM, flow cytometry
Protocol: U937 cells at 1×10^6 cells/mL were treated with 10 mM neomycin for 3 h and/or 15 μM defensins for 30 min in serum-free RPMI 1640 medium containing 0.1% BSA, followed by 20 min fixation with 2% (v/w) paraformaldehyde (Sigma-Aldrich), 10 min lysis with 0.5% (w/v) saponin (Sigma-Aldrich), and then 30 min blocking with 3% (w/v) BSA. Three 5-min centrifugal washes with PBS at 500 g were also included between steps. FITC-conjugated mouse anti-PI(4,5)P2 IgM (Echelon Biosciences) or IgM control (GeneTex, Irvine, CA) was subsequently used at 10 μg/mL for 30 min prior to flow cytometry analysis.

U937 cells [4] = test: Tetrazolium-coupled cell viability assay, HBD-3 and mutants, U937; format: cell-based, human; settings: 48 h
Protocol: as §1

U937 cells [5] = test: Lipid inhibition of HBD-3 mediated PI uptake; format: cell-based, human; settings: 15 μM HBD-3 pre-incubated with 50 μM synthetic lipid, flow cytometry, three independent experiments
Protocol: (§2) Cells suspended at 1×10^6 cells/mL in serum-free medium containing 0.1% (w/v) bovine serum albumin (BSA) (Sigma-Aldrich) were treated with HBD-3 at 37°C for 30 min. Nucleic acid stain propidium iodide (PI) was then added to a final concentration of 1 μg/mL and cells subjected to flow cytometry analysis using BD FACSCanto II Flow Cytometer and BD FACSDiva Software v6.1.1 (BD Biosciences, San Jose, CA). For each flow cytometry reading, 10,000 cells, gated appropriately based on forward scattering and side scattering, were recorded. The resultant data were processed using FlowJo software (Tree Star, San Carlos, CA) to determine PI-positivity, which reflects the level of membrane permeabilisation. For lipid inhibition assays, 15 μM HBD-3 was pre-incubated with 50 μM synthetic lipids, including L-α-phosphatidic acid (PA), L-α-phosphatidylcholine (PC), L-α-phosphatidylethanolamine (PE), L-α-phosphatidylserine (PS), L-α-phosphatidylinositol-4-phosphate (PI(4)P), L-α-phosphatidylinositol-3,5-bisphosphate (PI(3,5)P2), L-α-phosphatidylinositol-4,5-bisphosphate (PI(4,5)P2) and L-α-phosphatidylinositol-3,4,5-trisphosphate (PI(3,4,5)P)3. All lipids were sourced from Avanti Polar Lipids, Alabaster, AL. For neomycin inhibition experiments, U937 cells at 1×10^6 cells/mL were pre-treated with 10 mM neomycin (Sigma-Aldrich), followed by three centrifugal washes with phosphate buffered saline (PBS) at 500 g for 5 min.

U937 cells [6] = test: Neomycin inhibition of membrane permeabilisation (PI uptake); format: cell-based, human; settings: cells pre-treated with 10 mM neomycin, PI uptake by flow cytometry; effect overcome at higher HBD-3 concentrations
Protocol: as §2, with “For neomycin inhibition experiments, U937 cells at 1×10^6 cells/mL were pre-treated with 10 mM neomycin (Sigma-Aldrich), followed by three centrifugal washes with phosphate buffered saline (PBS) at 500 g for 5 min.” left out

tumour cells = settings: in vitro; ref [11]; cited from earlier work
Source text: The underlying mechanism was described to involve the entry of NaD1 into the cell followed by binding to PI(4,5)P2, leading to membrane permeabilisation, membrane blebbing and eventually to cell lysis.

binding to PA on PIP strip compared to wild-type HBD-3 [2]: substantially retained
binding to phosphoinositides/lipids on PIP strip [2]: much lower levels
Substance: HBD-3(K32A): alanine mutant of HBD-3 at K32, recombinantly expressed in P. pastoris (GIINTLQKYYCRVRGGRCAVLSCLPKEEQIGACSTRGRKCCRRKK; ends and bridges not checked; cysteine pairing not given here; UniProt P81534 23-67, looked up, variant K32A)
ability to induce ATP release from ATP-encapsulated liposomes compared to wild-type HBD-3 [1]: impaired
tumour cell cytotoxicity compared to wild-type HBD-3 (U937 and HeLa cells): reduced tumour cell cytotoxicity

fold higher IC50 compared to wild-type HBD-3 (HeLa cells): two-fold
fold higher IC50 compared to wild-type HBD-3 (U937 cells [4]): three-fold
binding to PA on PIP strip compared to wild-type HBD-3 [2]: maintaining binding to PA
binding to phosphoinositides/lipids on PIP strip [2]: pronounced loss of PIP binding
Substance: HBD-3(K39A): alanine mutant of HBD-3 at K39, recombinantly expressed in P. pastoris (GIINTLQKYYCRVRGGRCAVLSCLPKEEQIGKCSTRGRACCRRKK; UniProt P81534 23-67, looked up, variant K39A)
blocking of anti-PI(4,5)P2 antibody binding (overall fluorescence intensity vs untreated control) [3]: essentially the same as that of the untreated control
ability to induce ATP release from ATP-encapsulated liposomes compared to wild-type HBD-3 [1]: impaired
tumour cell cytotoxicity compared to wild-type HBD-3 (U937 and HeLa cells): reduced tumour cell cytotoxicity

Substance: L-α-phosphatidic acid [PA]
reduced PI-positivity (inhibition of HBD-3 mediated PI uptake by lipid) (U937 cells [5]): enhanced permeabilisation

Substance: L-α-phosphatidylcholine [PC]
reduced PI-positivity (inhibition of HBD-3 mediated PI uptake by lipid) (U937 cells [5]): did not show any significant inhibition

Substance: L-α-phosphatidylethanolamine [PE]
reduced PI-positivity (inhibition of HBD-3 mediated PI uptake by lipid) (U937 cells [5]): did not show any significant inhibition

Substance: L-α-phosphatidylinositol-3,4,5-trisphosphate [PI(3,4,5)P3]
reduced PI-positivity (inhibition of HBD-3 mediated PI uptake by lipid) (U937 cells [5]): 100%

Substance: L-α-phosphatidylinositol-3,5-bisphosphate [PI(3,5)P2]
reduced PI-positivity (inhibition of HBD-3 mediated PI uptake by lipid) (U937 cells [5]): did not show any significant inhibition

Substance: L-α-phosphatidylinositol-4,5-bisphosphate [PI(4,5)P2]
reduced PI-positivity (inhibition of HBD-3 mediated PI uptake by lipid) (U937 cells [5]): ~50%

Substance: L-α-phosphatidylinositol-4-phosphate [PI(4)P]
reduced PI-positivity (inhibition of HBD-3 mediated PI uptake by lipid) (U937 cells [5]): did not show any significant inhibition

Substance: L-α-phosphatidylserine [PS]
reduced PI-positivity (inhibition of HBD-3 mediated PI uptake by lipid) (U937 cells [5]): ~15%

Substance: LL-37: another CAP that exhibits non-PI(4,5)P2-dependent detergent-like and/or pore-forming membrane disruption (LLGDFFRKSKEKIGKEFKRIVQRIKDFLRNLVPRTES; Antibacterial peptide LL-37; UniProt P49913 134-170, looked up) [reference compound]
susceptibility of neomycin pre-incubated cells to permeabilisation compared to untreated control (U937 cells [6]): not

Substance: Nicotiana alata defensin 1 (RECKTESNTFPGICITKPPCRKACISEKFTDGHCSKILRRCLCTKPC; UniProt Q8GTM0 26-72, looked up) [NaD1]
concentrations selectively killing a broad spectrum of tumour cells (tumour cells): low micromolar concentrations

Reference: article PMC4811302, “Human β-defensin 3 contains an oncolytic motif that binds PI(4,5)P2 to mediate tumour cell permeabilisation” (Oncotarget, 2015)
